Reference: ChEMBL document CHEMBL1141990, “Effects of suberoylanilide hydroxamic acid and trichostatin A on induction of cytochrome P450 enzymes and benzo[a]pyrene DNA adduct formation in human cells” (2005)

How the values were obtained:
Type in all cases: functional
MCF7 [1] = assay: Average fold change in expression of CYP1B1 after treatment with compound of concentration 1 mM in human MCF-7 cells
MCF7 [2] = assay: Average fold change in expression of CYP1A1 after treatment with compound of concentration 0.1 mM in human MCF-7 cells
MCF7 [3] = assay: Average fold change in expression of CYP1B1 after treatment with compound of concentration 0.1 mM in human MCF-7 cells
MCF7 [4] = assay: Average fold change in expression of CYP1A1 after treatment with compound of concentration 0.01 mM in human MCF-7 cells
MCF7 [5] = assay: Average fold change in expression of CYP1B1 after treatment with compound of concentration 0.01 mM in human MCF-7 cells
MCF7 [6] = assay: Average fold change in expression of CYP1A1 after treatment with compound of concentration 1 mM in human MCF-7 cells
MCF7 [7] = assay: Average fold change in expression of CYP1A1 after co-treatment with compound of concentration 1 mM in human MCF-7 cells
MCF7 [8] = assay: Average fold change in expression of CYP1B1 after co-treatment with compound of concentration 1 mM in human MCF-7 cells
MCF7 [9] = assay: Average fold change in expression of CYP1A1 at 1 mM after co-treatment with compound and TSA in human MCF-7 cells
MCF7 [10] = assay: Average fold change in expression of CYP1B1 at 1 mM after co-treatment with compound and TSA in human MCF-7 cells
MCF7 [11] = assay: Average fold change in expression of CYP1A1 at 1 mM after co-treatment with compound and SAHA in human MCF-7 cells
MCF7 [12] = assay: Average fold change in expression of CYP1B1 at 1 mM after co-treatment with compound and SAHA in human MCF-7 cells
MCF7 [13] = assay: Mean B[a]P DNA binding at 4 uM after co-treatment with compound and TSA (2 uM) in human MCF-7 cells
MCF7 [14] = assay: Mean B[a]P DNA binding at 4 uM after co-treatment with compound and SAHA (2 uM) in human MCF-7 cells
MCF7 [15] = assay: Mean B[a]P DNA binding at 4 uM in human MCF-7 cells

Structure (SMILES)	Fold change (MCF7 [1])	Fold change (MCF7 [2])	Fold change (MCF7 [3])	Fold change (MCF7 [4])	Fold change (MCF7 [5])	Fold change (MCF7 [6])	Fold change (MCF7 [7])	Fold change (MCF7 [8])	Fold change (MCF7 [9])	Fold change (MCF7 [10])	Fold change (MCF7 [11])	Fold change (MCF7 [12])	Activity (MCF7 [13]) [pmol adducts/mg DNA]	Activity (MCF7 [14]) [pmol adducts/mg DNA]	Activity (MCF7 [15]) [pmol adducts/mg DNA]
O=C(CCCCCCC(=O)Nc1ccccc1C(=O)NO)Nc1ccccc1	1.58	2.86	1.62	0.77	1.1	0.98	–	–	–	–	–	–	–	–	–
c1ccc2c(c1)cc1ccc3cccc4ccc2c1c34 [BENZO[DEF]CHRYSENE]	4.35	3.69	1.7	1.85	1.36	25.24	25.55	4.39	8.77	1.02	22.92	2.4	54.15	52.18	34.75
CC(/C=C/C(=O)NO)=C\[C@@H](C)C(=O)c1ccc(N(C)C)cc1 [TRICHOSTATIN]	0.17	0.81	1.57	0.77	1.29	3.1	–	–	–	–	–	–	–	–	–
